Experimental data reported in patent US20250136576A1, “Heterocyclic Compounds and Uses Thereof” (ACEA Therapeutics, Inc., priority 2021, published 2025).

tested on: KM12-luc cells; test: Cell proliferation and growth inhibition assay (CCK-8) in KM12-luc; format: cell-based; conditions: KM12-Luc, 72 h, KM12-luc cells, treated with test compounds for 72 hrs, CCK-8 viability; read-out: NTRK IC50 in KM12-luc
In short: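 Cells were grown at 37 °C, 5% CO2 with 10% FBS: MV-4-11 in IMDM, H1975 in RPMI 1640, KM12-luc in DMEM. Viability was read by CCK-8 (1-4 hrs reagent incubation, absorbance at OD450). IC50 came from a non-linear sigmoidal dose-response fit.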

`CN(C)CCN(C)c1ccc(C(=O)Nc2c[nH]c3ccc(Cc4cc(F)cc(F)c4)cc23)c(NC2CCOCC2)c1` [Compound 507, N-(5-(3,5-difluorobenzyl)-1H-indol-3-yl)-4-(2-(dimethylamino)ethyl)(methylamino)-2-((tetrahydro-2H-pyran-4-yl)amino) benzamide] and `COCCCN(C)c1cc(N2CCN(C)CC2)ccc1C(=O)Nc1c[nH]c2ccc(Cc3cc(F)cc(F)c3)cc12` [Compound 508, N-(5-(3,5-difluorobenzyl)-1H-indol-3-yl)-2-((3-methoxypropyl)(methyl)amino)-4-(4-methylpiperazin-1-yl)benzamide] cannot be ordered by IC50: over 1 µM for the first, over 1 µM for the second.

`COc1cnc(Nc2ccc(N3CC[C@@H](N(C)C)C3)c(NC(C)=O)c2)nc1-c1c[nH]c2c(F)cccc12` [Compound R-280, (R)—N-(2-(3-(dimethylamino)pyrrolidin-1-yl)-5-((4-(7-fluoro-1H-indol-3-yl)-5-methoxypyrimidin-2-yl)amino)phenyl)acetamide] and `COc1cnc(Nc2ccc(N3CC[C@@H](N(C)C)C3)c(NC(C)=O)c2)nc1-c1c[nH]c2c(OC)cccc12` [Compound R-288, (R)—N-(2-(3-(dimethylamino)pyrrolidin-1-yl)-5-((5-methoxy-4-(7-methoxy-1H-indol-3-yl)pyrimidin-2-yl)amino)phenyl)acetamide] are within 1.5-fold of each other in IC50: 0.0156 µM for the first, 0.0155 µM for the second.

First: COc1cnc(Nc2ccc(N3CC[C@@H](N(C)C)C3)c(NC(C)=O)c2)nc1-c1cn(C)c2c(F)cccc12 [Compound R-281, (R)—N-(2-(3-(dimethylamino)pyrrolidin-1-yl)-5-((4-(7-fluoro-1-methyl-1H-indol-3-yl)-5-methoxypyrimidin-2-yl)amino)phenyl)acetamide]
Second: CC(=O)Nc1cc(Nc2ncc(Cl)c(-c3cn(C)c4c(F)cccc34)n2)ccc1N1CC[C@@H](N(C)C)C1 [Compound R-415, (R)—N-(5-((5-chloro-4-(7-fluoro-1-methyl-1H-indol-3-yl)pyrimidin-2-yl)amino)-2-(3-(dimethylamino)pyrrolidin-1-yl)phenyl)acetamide]
The IC50 of the first is 1.8-fold higher: 0.121 µM for the first, 0.0667 µM for the second.

`CN(C)[C@@H]1CCN(c2ccc(Nc3ncc(C(F)(F)F)c(-c4c[nH]c5c(F)cccc45)n3)cc2N)C1` [Compound R-345, (R)-4-(3-(dimethylamino)pyrrolidin-1-yl)-N^1-(4-(7-fluoro-1H-indol-3-yl)-5-(trifluoromethyl)pyrimidin-2-yl)benzene-1,3-diamine] and `CN(C)[C@H]1CCN(c2ccc(Nc3ncc(C(F)(F)F)c(-c4c[nH]c5c(F)cccc45)n3)cc2N)C1` [Compound S-345, (S)-4-(3-(dimethylamino)pyrrolidin-1-yl)-N^1-(4-(7-fluoro-1H-indol-3-yl)-5-(trifluoromethyl)pyrimidin-2-yl)benzene-1,3-diamine] are within 1.5-fold of each other in IC50: 0.0062 µM for the first, 0.0082 µM for the second.

First: CC(=O)Nc1cc(Nc2ncc(C(F)(F)F)c(-c3cn(C)c4c(F)cccc34)n2)ccc1N1CC[C@@H](N(C)C)C1 [Compound R-353, (R)—N-(2-(3-(dimethylamino)pyrrolidin-1-yl)-5-((4-(7-fluoro-1-methyl-1H-indol-3-yl)-5-(trifluoromethyl)pyrimidin-2-yl)amino)phenyl)acetamide]
Second: CC(=O)Nc1cc(Nc2ncc(C(F)(F)F)c(-c3cn(C)c4c(F)cccc34)n2)ccc1N1CC[C@H](N(C)C)C1 [Compound S-353, (S)—N-(2-(3-(dimethylamino)pyrrolidin-1-yl)-5-((4-(7-fluoro-1-methyl-1H-indol-3-yl)-5-(trifluoromethyl)pyrimidin-2-yl)amino)phenyl)acetamide]
The IC50 of the first is 1.8-fold higher: 0.0643 µM for the first, 0.0352 µM for the second. The second is the more potent here.

`CN(C)[C@@H]1CCN(c2ccc(Nc3ncc(C(F)(F)F)c(-c4cn(C)c5c(F)cccc45)n3)cc2N)C1` [Compound R-354, (R)-4-(3-(dimethylamino)pyrrolidin-1-yl)-N^1-(4-(7-fluoro-1-methyl-1H-indol-3-yl)-5-(trifluoromethyl)pyrimidin-2-yl)benzene-1,3-diamine] and `CN(C)[C@H]1CCN(c2ccc(Nc3ncc(C(F)(F)F)c(-c4cn(C)c5c(F)cccc45)n3)cc2N)C1` [Compound S-354, (S)-4-(3-(dimethylamino)pyrrolidin-1-yl)-N^1-(4-(7-fluoro-1-methyl-1H-indol-3-yl)-5-(trifluoromethyl)pyrimidin-2-yl)benzene-1,3-diamine] are within 1.5-fold of each other in IC50: 0.0691 µM for the first, 0.0563 µM for the second.

`Cc1cccc2c(-c3nc(Nc4ccc(N5CC[C@@H](N(C)C)C5)c(N)c4)ncc3C(F)(F)F)c[nH]c12` [Compound R-367, (R)-4-(3-(dimethylamino)pyrrolidin-1-yl)-N^1-(4-(7-methyl-1H-indol-3-yl)-5-(trifluoromethyl)pyrimidin-2-yl)benzene-1,3-diamine] and `Cc1cccc2c(-c3nc(Nc4ccc(N5CC[C@H](N(C)C)C5)c(N)c4)ncc3C(F)(F)F)c[nH]c12` [Compound S-367, (S)-4-(3-(dimethylamino)pyrrolidin-1-yl)-N^1-(4-(7-methyl-1H-indol-3-yl)-5-(trifluoromethyl)pyrimidin-2-yl)benzene-1,3-diamine] are within 1.5-fold of each other in IC50: 0.0057 µM for the first, 0.0046 µM for the second.

Compared with `Cc1cccc2c(-c3nc(Nc4ccc(N5CC[C@@H](N(C)C)C5)c(N)c4)ncc3Cl)c[nH]c12` [Compound R-425, (R)—N^1-(5-chloro-4-(7-methyl-1H-indol-3-yl)pyrimidin-2-yl)-4-(3-(dimethylamino)pyrrolidin-1-yl)benzene-1,3-diamine], `CN(C)[C@H]1CCN(c2ccc(Nc3ncc(Cl)c(-c4c[nH]c5c(F)cccc45)n3)cc2N)C1` [Compound S-414, (S)—N^1-(5-chloro-4-(7-fluoro-1H-indol-3-yl)pyrimidin-2-yl)-4-(3-(dimethylamino)pyrrolidin-1-yl)benzene-1,3-diamine] is 4.4-fold higher in IC50: 0.0113 µM for the first, 0.0501 µM for the second.

First: Cc1cccc2c(-c3nc(Nc4ccc(N5CC[C@@H](N(C)C)C5)c(N)c4)ncc3Cl)cn(C)c12 [Compound R-431, (R)—N^1-(5-chloro-4-(1,7-dimethyl-1H-indol-3-yl)pyrimidin-2-yl)-4-(3-(dimethylamino)pyrrolidin-1-yl)benzene-1,3-diamine]
Second: CN(C)[C@H]1CCN(c2ccc(Nc3ncc(Cl)c(-c4cn(C)c5c(F)cccc45)n3)cc2N)C1 [Compound S-420, (S)—N^1-(5-chloro-4-(7-fluoro-1-methyl-1H-indol-3-yl)pyrimidin-2-yl)-4-(3-(dimethylamino)pyrrolidin-1-yl)benzene-1,3-diamine]
The IC50 of the first is 8.2-fold lower: 0.0318 µM for the first, 0.261 µM for the second. The first is the more potent here.

`CC(=O)Nc1cc(Nc2ncc(Cl)c(-c3cn(C)c4c(C)cccc34)n2)ccc1N1CC[C@@H](N(C)C)C1` [Compound R-432, (R)—N-(5-((5-chloro-4-(1,7-dimethyl-1H-indol-3-yl)pyrimidin-2-yl)amino)-2-(3-(dimethylamino)pyrrolidin-1-yl)phenyl)acetamide] and `CC(=O)Nc1cc(Nc2ncc(Cl)c(-c3cn(C)c4c(F)cccc34)n2)ccc1N1CC[C@H](N(C)C)C1` [Compound S-415, (S)—N-(5-((5-chloro-4-(7-fluoro-1-methyl-1H-indol-3-yl)pyrimidin-2-yl)amino)-2-(3-(dimethylamino)pyrrolidin-1-yl)phenyl)acetamide] are within 1.5-fold of each other in IC50: 0.13 µM for the first, 0.155 µM for the second.

First: COc1cccc2c(-c3ncc(C(F)(F)F)c(Nc4ccc(N5CC[C@H](N(C)C)C5)c(NC(C)=O)c4)n3)c[nH]c12 [Compound S-382b, (S)—N-(2-(3-(dimethylamino)pyrrolidin-1-yl)-5-((2-(7-methoxy-1H-indol-3-yl)-5-(trifluoromethyl)pyrimidin-4-yl)amino)phenyl)acetamide]
Second: CC(=O)Nc1cc(Nc2ncc(Cl)c(-c3c[nH]c4c(F)cccc34)n2)ccc1N1CC[C@H](N(C)C)C1 [Compound S-409, (S)—N-(5-((5-chloro-4-(7-fluoro-1H-indol-3-yl)pyrimidin-2-yl)amino)-2-(3-(dimethylamino)pyrrolidin-1-yl)phenyl)acetamide]
The IC50 of the first is 14-fold higher: 0.349 µM for the first, 0.0246 µM for the second.

`COc1cccc2c(-c3nc(Nc4ccc(N5CC[C@H](N(C)C)C5)c(N)c4)ncc3C(F)(F)F)cn(C)c12` [Compound S-390, (S)-4-(3-(dimethylamino)pyrrolidin-1-yl)-N^1-(4-(7-methoxy-1-methyl-1H-indol-3-yl)-5-(trifluoromethyl)pyrimidin-2-yl)benzene-1,3-diamine] gave an IC50 of 0.0446 µM.

same assay, conditions: KM12-luc cells, treated with test compounds for 72 hrs, CCK-8 viability; read-out: NTRK IC50 in KM12-luc

Going from `COc1cccc2c(-c3nc(Nc4ccc(N5CC[C@@H](N(C)C)C5)c(N)c4)ncc3Cl)cn(C)c12` [Compound R-414, (R)—N^1-(5-chloro-4-(7-methoxy-1-methyl-1H-indol-3-yl)pyrimidin-2-yl)-4-(3-(dimethylamino)pyrrolidin-1-yl)benzene-1,3-diamine] to `Cc1cccc2c(-c3nc(Nc4ccc(N5CC[C@H](N(C)C)C5)c(N)c4)ncc3Cl)cn(C)c12` [Compound S-431, (S)—N-(5-chloro-4-(1,7-dimethyl-1H-indol-3-yl)pyrimidin-2-yl)-4-(3-(dimethylamino)pyrrolidin-1-yl)benzene-1,3-diamine], the IC50 rises from 0.0124 µM to 0.0396 µM (3.2-fold).

First: COc1cccc2c(-c3nc(Nc4ccc(N5CC[C@@H](N(C)C)C5)c(N)c4)ncc3Cl)cn(C)c12 [Compound R-420, (R)—N^1-(5-chloro-4-(7-methoxy-1-methyl-1H-indol-3-yl)pyrimidin-2-yl)-4-(3-(dimethylamino)pyrrolidin-1-yl)benzene-1,3-diamine]
Second: CC(=O)Nc1cc(Nc2ncc(Cl)c(-c3cn(C)c4c(C)cccc34)n2)ccc1N1CC[C@H](N(C)C)C1 [Compound S-432, (S)—N-(5-((5-chloro-4-(1,7-dimethyl-1H-indol-3-yl)pyrimidin-2-yl)amino)-2-(3-(dimethylamino)pyrrolidin-1-yl)phenyl)acetamide]
The IC50 of the first is 3.2-fold higher: 0.072 µM for the first, 0.0224 µM for the second.

For `COc1cccc2c(-c3nc(Nc4ccc(N5CC[C@@H](N(C)C)C5)c(N)c4)ncc3Cl)cn(C)c12` [Compound R-439, (R)—N^1-(5-chloro-4-(7-methoxy-1-methyl-1H-indol-3-yl)pyrimidin-2-yl)-4-(3-(dimethylamino)pyrrolidin-1-yl)benzene-1,3-diamine], the IC50 was 0.128 µM.
